Measured values reported in patent US12605451B2, “Targeted plasma protein degradation” (Novartis AG, priority 2020, dated 2026).

Assays:
FHR3 = target: T1, FHR3 (Homo sapiens, UniProt Q02985); assay: SPR binding to biotinylated FHR3 (Proteon XPR36); conditions: Bifunctional Compound
T1 construct: Purified FHR3 with C-terminal biotinylated Avitag was used for the assay
T1 sequence (Q02985 19-330): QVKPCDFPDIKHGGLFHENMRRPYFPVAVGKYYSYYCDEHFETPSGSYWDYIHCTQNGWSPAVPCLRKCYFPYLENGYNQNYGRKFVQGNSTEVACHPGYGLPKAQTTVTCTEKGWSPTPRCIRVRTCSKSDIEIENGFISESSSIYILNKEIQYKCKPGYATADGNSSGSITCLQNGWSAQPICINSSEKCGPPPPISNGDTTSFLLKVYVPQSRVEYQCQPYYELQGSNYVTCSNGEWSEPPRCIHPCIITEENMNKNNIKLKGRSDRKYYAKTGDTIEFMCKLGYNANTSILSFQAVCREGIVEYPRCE
Experimental: SPR was used to obtain the binding data for FHR3 receptor ligands compounds (C12), (C13), (C14), (C15) and (C16), either alone or as part of the bifunctional compounds (BFC13), (BFC14), (BFC15), (BFC16) and (BFC17), respectively.
SPR Binding experiments were performed on a Proteon XPR36 instrument (Bio-Rad Laboratories). Purified FHR3 with C-terminal biotinylated Avitag was used for the assay. Biotinylated FHR3 was incubated with fivefold molar excess of bifunctional compounds (BFC13), (BFC14), (BFC15), (BFC16) or (BFC17), or compounds (C12), (C13), (C14), (C15) or (C16), and immobilized onto a Neutravidin coated sensor chip. (NLC chip, Bio-Rad Laboratories, Inc). […]
To perform sandwich SPR binding assays, His-ASGPR1 (62-291) protein stocks were diluted with running buffer to a desired concentration. […] Sensorgrams were recorded for association and dissociation phases. All sensorgrams were processed by subtracting the binding response recorded from a blank control surfaces (or interspot surfaces), followed by subtracting buffer blank injections from the reaction surface. […]

human ASGPR1 = target: T2, human ASGPR1 (Homo sapiens, UniProt P07306); assay: ASGPR1 SPR direct binding (Biacore, SA chip); conditions: Bifunctional Compound (FHR3 series), Table 7, read-out: ASGRR KD
T2 construct: Recombinant extracellular domain of human ASGPR1 with N-terminal biotinylated Avitag
T2 sequence (P07306 62-291 limits assumed): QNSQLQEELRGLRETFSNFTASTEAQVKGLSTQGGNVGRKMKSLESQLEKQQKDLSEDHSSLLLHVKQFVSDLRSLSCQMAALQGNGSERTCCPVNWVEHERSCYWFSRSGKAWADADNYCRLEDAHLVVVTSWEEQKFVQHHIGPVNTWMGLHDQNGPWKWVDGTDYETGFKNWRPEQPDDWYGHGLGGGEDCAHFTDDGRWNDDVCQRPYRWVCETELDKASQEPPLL
Experimental: SPR was used to obtain the binding data for ASGP receptor ligand compound (int-CC2), either alone or as part of the bifunctional compounds (BFC-13), (BFC-15) and (BFC16).
(§1) ASGPR1 SPR experiments were performed on either Biacore T200 or Biacore 8K. The assay was optimized for Biacore (Streptavidin) SA chip in running buffer consisting of 20 mM HEPES, 300 mM NaCl, 2 mM CaCl2, 0.01% tween-20, 2% DMSO, pH 7.4. Recombinant extracellular domain of human ASGPR1 with N-terminal biotinylated Avitag was diluted to 20 μg/mL in running buffer, and immobilized onto SA chip after it was preconditioned with at least four 60-second injections at 30 uL/min of 1 M NaCl/40 mM NaOH solution. Protein immobilization level varied from 500 RU to 3500 RU dependent on analytes' molecular weight, for targeted Rmax of 30 RUs. Direct binding of analytes to ASGPR1 was observed when a dose response titration of analytes in 2% DMSO was flown over the immobilized protein. Data analysis was done on either Biacore T200 Evaluation Software or Biacore Insight Evaluation Software.
SPR was used to obtain the binding data for ASGP receptor ligand compounds (int-CC2), either alone or as part of the bifunctional compounds (BFC1).
as §1, with “Biacore” for “Biacore (Streptavidin)”

CC(=O)N[C@H]1[C@H](OCCCCC(=O)NCCCNC(=O)CCOCC(COCCC(=O)NCCCNC(=O)CCCCO[C@@H]2O[C@H](CO)[C@H](O)[C@H](O)[C@H]2NC(C)=O)(COCCC(=O)NCCCNC(=O)CCCCO[C@@H]2O[C@H](CO)[C@H](O)[C@H](O)[C@H]2NC(C)=O)NC(=O)CCOCCOCCOCCOCCOCCOCCOCCOCCOCCC(=O)NCCCC[C@@H]2NC(=O)[C@H](CCCNC(=N)N)NC(=O)[C@H](C)N(C)C(=O)[C@H](Cc3c[nH]c4ccccc34)NC(=O)[C@H](Cc3c[nH]cn3)NC(=O)[C@H](CC(C)C)NC(=O)[C@H](CO)NC(=O)[C@H](C)N(C)C(=O)[C@H](Cc3ccccc3)N(C)C(=O)[C@H](Cc3ccccc3)NC(=O)CSC[C@@H](C(=O)NCC(N)=O)NC(=O)[C@H](CCCNC(=N)N)NC(=O)[C@H](CC(=O)O)NC2=O)O[C@H](CO)[C@H](O)[C@@H]1O [BFC-16]
Kd (FHR3): 26 nM
Kd (human ASGPR1): 0.32 nM
